# Results as given in publication PMC11680393 (Viruses, 2024).
# How the values were obtained:
# RSV A2 = test: CPE assay, RSV A2 in HEp-2 cells (resazurin); format: cell-based; conditions: human respiratory syncytial virus, 120 h, RSV A2 0.2 MOI, 5 days
# in vitro = format: cell-based, Human; conditions: human; HEp-2 cells, 5 or 6 days; read-out: Cytotoxicity CC50
# HEp-2 cells = test: in vitro; format: cell-based, Human
compound,measurement,setting,value
Cc1cnc(N2CC3(CCOCC3)C2)c(C(=O)Nc2ccc(C(=O)N3CCc4cc(C(=O)Nc5c(C)cccc5F)sc4-c4ccccc43)cc2)c1 [PC786],IC50,RSV A2,0.5 nM
same,CC50,in vitro,> 14000 nM
same,concentration up to which cell viability was not affected,HEp-2 cells,≥ 14 µM
